From patent publication US20250171437A1 (Agios Pharmaceuticals,Inc., priority 2022, published 2025) come the findings set out here.

The first assay addresses T1, human PAH with the R408W mutation (A375 R408W cells) (Homo sapiens, UniProt P00439, R408W).
T1 construct: expressed in transfected cells
T1 sequence (P00439 1-452 R408W): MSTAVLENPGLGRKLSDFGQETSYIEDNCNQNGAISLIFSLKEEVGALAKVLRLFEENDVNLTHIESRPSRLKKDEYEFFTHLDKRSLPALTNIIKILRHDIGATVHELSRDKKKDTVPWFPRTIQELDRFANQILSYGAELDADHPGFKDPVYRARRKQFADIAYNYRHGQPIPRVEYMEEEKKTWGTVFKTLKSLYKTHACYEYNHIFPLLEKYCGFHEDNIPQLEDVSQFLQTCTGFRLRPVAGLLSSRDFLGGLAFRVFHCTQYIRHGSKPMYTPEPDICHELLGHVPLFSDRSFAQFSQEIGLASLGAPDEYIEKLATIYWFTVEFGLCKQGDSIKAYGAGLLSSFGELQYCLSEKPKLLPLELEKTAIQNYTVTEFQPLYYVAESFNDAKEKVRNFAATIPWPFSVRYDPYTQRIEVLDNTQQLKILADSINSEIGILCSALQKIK
As to the kind of experiment: Cell Based Phenylalanine Flux Assay. Conditions: A375 R408W cells; 24 hrs with compound, then 20 μM sepiapterin and 800 μM 13C9,15N-Phenylalanine for 4 hours; 13C-Tyrosine by LC-MS; average where tested multiple times. Summed up:
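Stable R408W PAH A375 cells: 24 h compound pretreatment in duplicate, then 4 h with 800 μM isotope-labelled Phe and 20 μM sepiapterin. Labelled Tyr output by LC-MS; AC50 averaged where repeated.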
Broadly, the AC50 is the midpoint of the concentration-response curve, whichever way the signal moves. `O=C(c1ccnn1C(F)F)N1CCc2[nH]cnc2[C@@H]1c1nc2ccccc2o1` [Example 564, (R)-(4-(benzo[d]oxazol-2-yl)-6,7-dihydro-1H-imidazo[4,5-c]pyridin-5(4H)-yl)(1-(difluoromethyl)-1H-pyrazol-5-yl)methanone]: the AC50 lay in the range of 1000 to 5000 nM.

Turning to `O=C(c1nnc(-c2cc(C(F)(F)F)ccn2)o1)N1CCc2[nH]cnc2[C@H]1c1nc2cc(F)ccc2o1` [Example 122, [(4S)-4-(5-fluoro-1,3-benzoxazol-2-yl)-1,4,6,7-tetrahydroimidazo[4,5-c]pyridin-5-yl]-[5-[4-(trifluoromethyl)-2-pyridyl]-1,3,4-oxadiazol-2-yl]methanone], the AC50 was ≤ 500 nM. On the same count and under the same terms, next, `COc1cccc2oc([C@H]3c4nc[nH]c4CCN3C(=O)c3nnc(-c4ccccn4)o3)nc12` [Example 623, (R)-(4-(4-methoxybenzo[d]oxazol-2-yl)-6,7-dihydro-1H-imidazo[4,5-c]pyridin-5(4H)-yl)(5-(pyridin-2-yl)-1,3,4-oxadiazol-2-yl)methanone]: 1000 to 5000 nM. On the same count and under the same terms, the figure for `O=C(c1nnc(-c2ncccc2F)o1)N1CCc2[nH]cnc2[C@@H]1c1nc2ccccc2o1` [Example 834, (R)-(4-(benzo[d]oxazol-2-yl)-6,7-dihydro-1H-imidazo[4,5-c]pyridin-5(4H)-yl)(5-(3-fluoropyridin-2-yl)-1,3,4-oxadiazol-2-yl)methanone] is 500 to 1000 nM; for `O=C(c1oc(-c2cccnc2)nc1C(F)F)N1CCc2[nH]cnc2[C@@H]1c1nc2cccc(F)c2o1` [Example 589, (R)-(4-(difluoromethyl)-2-(pyridin-3-yl)oxazol-5-yl)(4-(7-fluorobenzo[d]oxazol-2-yl)-6,7-dihydro-1H-imidazo[4,5-c]pyridin-5(4H)-yl)methanone] it is ≤ 500 nM. With `O=C(c1ocnc1C(F)F)N1CCc2[nH]cnc2[C@@H]1c1nc2cc(OC(F)(F)F)ccc2o1` [Example 353, (R)-(4-(difluoromethyl)oxazol-5-yl)(4-(5-(trifluoromethoxy)benzo[d]oxazol-2-yl)-6,7-dihydro-1H-imidazo[4,5-c]pyridin-5(4H)-yl)methanone], the AC50 is ≤ 500 nM. On the same count and under the same terms, next, `Cc1nc(-c2ccccn2)oc1C(=O)N1CCc2[nH]cnc2[C@@H]1c1nc2cccc(F)c2o1` [Example 593, (R)-(4-(7-fluorobenzo[d]oxazol-2-yl)-6,7-dihydro-1H-imidazo[4,5-c]pyridin-5(4H)-yl)(4-methyl-2-(pyridin-2-yl)oxazol-5-yl)methanone]: 1000 to 5000 nM; `Nc1cn2ncc(C(=O)N3CCc4[nH]cnc4[C@H]3c3nc4cc(F)ccc4o3)c2cc1Cl` [Example 177, (S)-(6-amino-5-chloropyrazolo[1,5-a]pyridin-3-yl)(4-(5-fluorobenzo[d]oxazol-2-yl)-6,7-dihydro-1H-imidazo[4,5-c]pyridin-5(4H)-yl)methanone]: ≤ 500 nM.

Take `Cn1cncc1-c1nc(C(F)(F)F)c(C(=O)N2CCc3[nH]cnc3[C@@H]2c2nc3cc(F)ccc3o2)o1` [Example 792, (R)-(4-(5-fluorobenzo[d]oxazol-2-yl)-6,7-dihydro-1H-imidazo[4,5-c]pyridin-5(4H)-yl)(2-(1-methyl-1H-imidazol-5-yl)-4-(trifluoromethyl)oxazol-5-yl)methanone]: the concentration at half-maximal activity (AC50) lay in the range of 1000 to 5000 nM. The same measure, in the same setting: next, `O=C(c1cnn2cc(N3CCC(O)CC3)ccc12)N1CCc2[nH]cnc2[C@H]1c1nc2cc(F)cc(F)c2o1` [Example 699, (S)-(4-(5,7-difluorobenzo[d]oxazol-2-yl)-6,7-dihydro-1H-imidazo[4,5-c]pyridin-5(4H)-yl)(6-(4-hydroxypiperidin-1-yl)pyrazolo[1,5-a]pyridin-3-yl)methanone]: 1000 to 5000 nM. Still for that read-out and setting: next, `Cc1ccc2oc([C@@H]3c4nc[nH]c4CCN3C(=O)c3nnc(-c4cnn(C(F)F)c4)o3)nc2c1` [Example 673, (S)-(5-(1-(difluoromethyl)-1H-pyrazol-4-yl)-1,3,4-oxadiazol-2-yl)(4-(5-methylbenzo[d]oxazol-2-yl)-6,7-dihydro-1H-imidazo[4,5-c]pyridin-5(4H)-yl)methanone]: ≤ 500 nM. Still for that read-out and setting: next, `CC(C)(O)c1nc(C(F)F)c(C(=O)N2CCc3[nH]cnc3[C@@H]2c2nc3c(Br)cccc3o2)o1` [Example 432, (R)-(4-(4-bromobenzo[d]oxazol-2-yl)-6,7-dihydro-1H-imidazo[4,5-c]pyridin-5(4H)-yl)(4-(difluoromethyl)-2-(2-hydroxypropan-2-yl)oxazol-5-yl)methanone]: ≤ 500 nM; `C[C@@H](O)c1nc(C(F)F)c(C(=O)N2CCc3[nH]cnc3[C@@H]2c2nc3c(F)cccc3o2)o1` [Example 230, (4-(difluoromethyl)-2-((R)-1-hydroxyethyl)oxazol-5-yl)((R)-4-(4-fluorobenzo[d]oxazol-2-yl)-6,7-dihydro-1H-imidazo[4,5-c]pyridin-5(4H)-yl)methanone]: 1000 to 5000 nM; `O=C(c1nnc(-c2cnn(C(F)F)c2)o1)N1CCc2[nH]cnc2[C@H]1c1nc2ccccc2o1` [Example 841, (S)-(4-(benzo[d]oxazol-2-yl)-6,7-dihydro-1H-imidazo[4,5-c]pyridin-5(4H)-yl)(5-(1-(difluoromethyl)-1H-pyrazol-4-yl)-1,3,4-oxadiazol-2-yl)methanone]: ≤ 500 nM. As for `O=C(c1ocnc1C(F)(F)F)N1CCc2[nH]cnc2[C@@H]1c1nc2cc(F)ccc2o1` [Example 24], the AC50 lay within 1000 to 5000 nM. Still for that read-out and setting: the figure for `Cc1cccc2oc([C@H]3c4nc[nH]c4CCN3C(=O)c3ocnc3C(F)F)nc12` [Example 381, (R)-(4-(difluoromethyl)oxazol-5-yl)(4-(4-methylbenzo[d]oxazol-2-yl)-6,7-dihydro-1H-imidazo[4,5-c]pyridin-5(4H)-yl)methanone] is 1000 to 5000 nM; for `Cn1cnc(-c2nc(C(F)F)c(C(=O)N3CCc4[nH]cnc4[C@@H]3c3nc4cccc(F)c4o3)o2)c1` [Example 891, (R)-(4-(difluoromethyl)-2-(1-methyl-1H-imidazol-4-yl)oxazol-5-yl)(4-(7-fluorobenzo[d]oxazol-2-yl)-1,4,6,7-tetrahydro-5H-imidazo[4,5-c]pyridin-5-yl)methanone] it is 1000 to 5000 nM; for `CC(C)n1ncnc1C(=O)N1CCc2[nH]cnc2[C@@H]1c1nc2ccccc2o1` [Example 706, (R)-(4-(benzo[d]oxazol-2-yl)-6,7-dihydro-1H-imidazo[4,5-c]pyridin-5(4H)-yl)(1-isopropyl-1H-1,2,4-triazol-5-yl)methanone] it is 500 to 1000 nM.

Staying with this assay, now noted: A375 cells expressing R408W PAH; 24 hrs with compound, then 20 μM sepiapterin and 800 μM 13C9,15N-Phenylalanine for 4 hours; 13C-Tyrosine by LC-MS; average where tested multiple times.
On to `COc1ccc2oc(C3c4nc[nH]c4CCN3C(=O)c3nc(C)nn3C)nc2c1` (stereo not drawn), for which the AC50 was 1000 to 5000 nM. The same measure, in the same setting: next, `O=C(c1nccs1)N1CCc2[nH]cnc2C1c1nc2ccc(Br)cc2o1` (stereo not drawn): ≥ 5000 nM; `Cn1nc(-c2ccccn2)nc1C(=O)N1CCc2[nH]cnc2C1c1nc2cccc(F)c2o1` (stereo not drawn): ≥ 5000 nM. Same read-out and setting: the figure for `O=C(c1nnc(-c2cn[nH]c2)o1)N1CCc2[nH]cnc2C1c1nc2ccc(F)cc2o1` (stereo not drawn) is 1000 to 5000 nM.

Take `O=C(CCc1nccs1)N1CCc2[nH]cnc2C1c1nc2ccc(F)cc2o1` (stereo not drawn): the concentration at half-maximal activity (AC50) is 1000 to 5000 nM. Still for that read-out and setting: next, `Cn1cc(-c2nnc(C(=O)N3CCc4[nH]cnc4C3c3nc4ccc(F)cc4o3)o2)cn1` (stereo not drawn): 1000 to 5000 nM; `Cc1cccc2nc(C3c4nc[nH]c4CCN3C(=O)c3nc(C(C)(C)C)nn3C)oc12` (stereo not drawn): 1000 to 5000 nM. As for `CC(C)(O)c1cc(C(=O)N2CCc3[nH]cnc3C2c2nc3cc(F)ccc3o2)no1` (stereo not drawn), the AC50 is ≥ 5000 nM. Same read-out and setting: the figure for `Cn1ccc(C(=O)N2CCc3[nH]cnc3C2c2nc3cc(F)ccc3o2)n1` (stereo not drawn) is ≥ 5000 nM.
